# Reference: ChEMBL document CHEMBL4038290, “Structure activity relationship and optimization of N-(3-(2-aminothiazol-4-yl)aryl)benzenesulfonamides as anti-cancer compounds against sensitive and resistant cells” (Bioorg Med Chem Lett, 2017)
# Calls of active or inactive are those of the source. The calls are words filed in the database; no cut-off is given here.
# Legend:
# [1] = target: T1, Eukaryotic translation initiation factor 2-alpha kinase 3 (Homo sapiens) (UniProt Q9NZJ5); test: Activation of PERK in human A375 cells assessed as increase in CHOP expression at 2.5 to 10 uM after 12 hrs by Western blot analysis; assay type: cell-based
# T1 sequence (whole entry): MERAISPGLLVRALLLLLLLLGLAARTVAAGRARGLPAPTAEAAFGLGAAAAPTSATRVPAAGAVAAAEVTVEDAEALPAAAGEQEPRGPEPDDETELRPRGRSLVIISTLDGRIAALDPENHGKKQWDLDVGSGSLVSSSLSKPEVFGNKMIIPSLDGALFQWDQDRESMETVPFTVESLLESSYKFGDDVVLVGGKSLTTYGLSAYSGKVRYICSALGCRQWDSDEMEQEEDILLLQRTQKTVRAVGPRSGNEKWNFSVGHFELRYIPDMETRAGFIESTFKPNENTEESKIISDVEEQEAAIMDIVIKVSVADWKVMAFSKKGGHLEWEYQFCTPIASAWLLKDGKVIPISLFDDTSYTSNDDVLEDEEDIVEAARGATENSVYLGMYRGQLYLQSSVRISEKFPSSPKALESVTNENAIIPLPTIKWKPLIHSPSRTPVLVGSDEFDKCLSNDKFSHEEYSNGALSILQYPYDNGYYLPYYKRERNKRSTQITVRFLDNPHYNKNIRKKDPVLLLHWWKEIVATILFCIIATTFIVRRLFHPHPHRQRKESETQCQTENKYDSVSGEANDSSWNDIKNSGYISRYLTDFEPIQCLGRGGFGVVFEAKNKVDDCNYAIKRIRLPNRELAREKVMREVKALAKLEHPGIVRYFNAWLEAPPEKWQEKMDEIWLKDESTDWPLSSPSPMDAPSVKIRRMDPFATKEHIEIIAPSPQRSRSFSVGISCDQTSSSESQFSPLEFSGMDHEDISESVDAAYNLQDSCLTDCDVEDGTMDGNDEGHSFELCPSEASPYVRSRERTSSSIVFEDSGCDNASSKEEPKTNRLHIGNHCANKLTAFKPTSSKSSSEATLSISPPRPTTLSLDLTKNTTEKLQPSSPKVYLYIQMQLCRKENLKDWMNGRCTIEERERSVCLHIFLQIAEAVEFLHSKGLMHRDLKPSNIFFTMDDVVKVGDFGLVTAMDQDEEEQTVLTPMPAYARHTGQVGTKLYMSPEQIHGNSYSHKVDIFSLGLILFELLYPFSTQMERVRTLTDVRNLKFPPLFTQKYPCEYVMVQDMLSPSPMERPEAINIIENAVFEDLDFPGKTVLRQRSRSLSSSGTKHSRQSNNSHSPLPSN
# A-375 [2] = test: Antiproliferative activity against human A375 cells assessed as cell viability at 5 uM after 48 hrs by trypan blue exclusion assay; assay type: functional; details: A-375, 48 h, read-out: Activity
# [3] = target: T1, Eukaryotic translation initiation factor 2-alpha kinase 3 (Homo sapiens); test: Activation of PERK in human A375 cells assessed as increase in CHOP expression at 1 to 2.5 uM after 48 hrs by Western blot analysis; assay type: cell-based
# [4] = target: T1, Eukaryotic translation initiation factor 2-alpha kinase 3 (Homo sapiens); test: Activation of PERK in human A375 cells at 2.5 to 10 uM after 12 hrs by Western blot analysis; assay type: cell-based
# [5] = Growth inhibition of human A375 RIV cells assessed as cell viability at 10 uM after 48 hrs by trypan blue exclusion assay; assay type: functional; details: A-375, 48 h, read-out: Activity
# A-375 [6] = test: Induction of autophagy in human A375 cells assessed as increase in conversion of LC3-I to LC3-II at 1 to 5 uM after 24 hrs by Western blot analysis; assay type: functional, cell-based
# A-375 [7] = test: Antiproliferative activity against human A375 cells assessed as cell viability at 1 uM after 48 hrs by trypan blue exclusion assay; assay type: functional; details: for viability at 1 µM: A-375, 48 h, read-out: Activity
# K562 = test: Growth inhibition of human K562 cells assessed as cell viability at 10 uM after 48 hrs by trypan blue exclusion assay; assay type: functional; details: K562, 48 h, read-out: Activity
# A-375 [8] = test: Antiproliferative activity against human A375 cells assessed as cell viability at 10 uM after 48 hrs by trypan blue exclusion assay; assay type: functional; details: A-375, 48 h, read-out: Activity
# A-375 [9] = test: Induction of autophagy in human A375 cells assessed as increase in conversion of LC3-I to LC3-II at 1 to 2.5 uM after 48 hrs by Western blot analysis; assay type: functional, cell-based
# [10] = Growth inhibition of human A375 R5C3 cells assessed as cell viability at 10 uM after 48 hrs by trypan blue exclusion assay; assay type: functional; details: A-375, 48 h, read-out: Activity
# BXPC-3 = test: Growth inhibition of human BxPC3 cells assessed as cell viability at 10 uM after 48 hrs by trypan blue exclusion assay; assay type: functional; details: BXPC-3, 48 h, read-out: Activity
# MIA PaCa-2 = test: Growth inhibition of gemcitabine-resistant human MIAPaCa2 cells assessed as cell viability at 10 uM after 48 hrs by trypan blue exclusion assay relative to control; assay type: functional; details: MIA PaCa-2, 48 h, read-out: Activity
# K-562R = test: Growth inhibition of human K562R cells assessed as cell viability at 10 uM after 48 hrs by trypan blue exclusion assay; assay type: functional; details: read-out: Activity
# [11] = target: T1, Eukaryotic translation initiation factor 2-alpha kinase 3 (Homo sapiens); test: Activation of PERK in human A375 cells at 1 to 2.5 uM after 48 hrs by Western blot analysis; assay type: cell-based
# A-375 [12] = test: Induction of apoptosis in human A375 cells assessed as cleavage of PARP protein at 2.5 to 10 uM after 12 hrs by Western blot analysis; assay type: functional, cell-based
# A-375 [13] = test: Induction of autophagy in human A375 cells assessed as increase in conversion of LC3-I to LC3-II at 2.5 to 10 uM after 12 hrs by Western blot analysis; assay type: functional, cell-based
# A-375 [14] = test: Antiproliferative activity against human A375 cells after 48 hrs by trypan blue exclusion assay; assay type: functional, cell-based; details: A-375, 48 h
SMILES,viability at 5 µM (A-375 [2]) [%],viability at 1 µM (A-375 [7]) [%],viability at 10 µM (A-375 [8]) [%],also measured
CCCCCCCCc1ccc(S(=O)(=O)Nc2cccc(-c3csc(NC(C)=O)n3)c2)cc1,< 1,34.8,< 1,Activity [1]: Active; Activity [3]: Active; Activity [4]: Active; viability at 10 µM [5]: 2.6%; Activity (A-375 [6]): Active; viability at 10 µM (K562): 3.8%; Activity (A-375 [9]): Active; viability at 10 µM [10]: 1.4%; viability at 10 µM (BXPC-3): 4.9%; viability at 10 µM (MIA PaCa-2): 11.4%; viability at 10 µM (K-562R): 10.1%; Activity [11]: Active; Activity (A-375 [12]): Active; Activity (A-375 [13]): Active
CCCCC#Cc1ccc(S(=O)(=O)Nc2cccc(-c3csc(NC(C)=O)n3)c2)cc1,9.3,73.2,< 1,–
CC(=O)Nc1nc(-c2cccc(NS(=O)(=O)c3cccc(Br)c3)c2)cs1,67.4,–,36,Activity (A-375 [7]): inactive
CCCCCCC#Cc1ccc(S(=O)(=O)Nc2cccc(-c3csc(Nc4ccccc4)n3)c2)cc1,59.2,87.1,5.8,–
C#Cc1ccc(S(=O)(=O)Nc2cccc(-c3csc(NC(C)=O)n3)c2)cc1,38.3,59.2,1.2,–
CCCCCCC#Cc1ccc(S(=O)(=O)Nc2cccc(-c3csc(N)n3)c2)cc1,< 1,97.6,3.5,–
CC(=O)Nc1nc(-c2cccc(NS(=O)(=O)c3cccc(C#C[Si](C)(C)C)c3)c2)cs1,< 1,61.6,5.8,–
CC(=O)Nc1nc(-c2cccc(NS(=O)(=O)c3ccc(C#CCO)cc3)c2)cs1,99.3,81.3,48.8,EC50 (A-375 [14]): 10 µM
CCCCCCc1ccc(S(=O)(=O)Nc2cccc(-c3csc(NC(C)=O)n3)c2)cc1,< 1,49.9,–,viability at 10 µM [5]: 3.4%; viability at 10 µM (K562): 23.2%; viability at 10 µM [10]: 1.4%; viability at 10 µM (BXPC-3): 5.9%; viability at 10 µM (MIA PaCa-2): 1.3%; viability at 10 µM (K-562R): 41.6%
CCCCCCC#Cc1ccc(S(=O)(=O)Nc2cccc(-c3csc(NC)n3)c2)cc1,8.1,36.6,1.2,–
CCCCCCC#Cc1ccc(S(=O)(=O)Nc2cccc(-c3csc(NC(C)=O)n3)c2)cc1,12.8,40.7,5.8,–
CCCCCC/C=C\c1ccc(S(=O)(=O)Nc2cccc(-c3csc(NC(C)=O)n3)c2)cc1,2.3,48.8,–,viability at 10 µM [5]: < 1%; viability at 10 µM (K562): 8.9%; viability at 10 µM [10]: < 1%; viability at 10 µM (BXPC-3): 2%; viability at 10 µM (MIA PaCa-2): 11.4%; viability at 10 µM (K-562R): 41.1%
CCCCCCCCC#Cc1ccc(S(=O)(=O)Nc2cccc(-c3csc(NC(C)=O)n3)c2)cc1,8.9,39.6,< 1,–
CC(=O)Nc1nc(-c2cccc(NS(=O)(=O)c3ccc(C#CC4CCCCC4)cc3)c2)cs1,1.2,52.3,1.2,–
CCCCCCC#Cc1cccc(S(=O)(=O)Nc2cccc(-c3csc(NC(C)=O)n3)c2)c1,1.2,56.9,< 1,–
CC(=O)Nc1nc(-c2cccc(NS(=O)(=O)c3ccc(C#C[Si](C)(C)C)cc3)c2)cs1,4.2,94.3,< 1,–
CC(=O)Nc1nc(-c2cccc(NS(=O)(=O)c3ccc(Br)cc3)c2)cs1,19.7,–,25.6,Activity (A-375 [7]): inactive
CC(=O)Nc1nc(-c2cccc(NS(=O)(=O)c3ccc(C#CCCc4ccccc4)cc3)c2)cs1,4.2,11.5,< 1,–
C#Cc1cccc(S(=O)(=O)Nc2cccc(-c3csc(NC(C)=O)n3)c2)c1,29,74.3,18.6,–
CC(=O)Nc1nc(-c2cccc(NS(=O)(=O)c3cccc(C#CCO)c3)c2)cs1,66.2,85.4,45.3,EC50 (A-375 [14]): 10 µM
